According to US20020099086A1, “Use of extracts from aristolochia in the treatment of AIDS” (PROTEOME SCIENCES PLC, priority 1998, published 2002):

Assays:
Botryis cinerea = assay: Antifungal plate diffusion method; assay type: cell-based; conditions: 150 microgramme aliquot spotted onto plate
Description: (§1) The antifungal activities of compounds of the invention was determined using a plate diffusion method. Plates containing medium and a fungal species were made up and 150 microgramme aliquots of a test compound of the invention were spotted onto the plate. The diameter of inhibition of fungal growth around the test compound was then determined.

Rhizoctonia solani = assay: Antifungal plate diffusion method; assay type: cell-based; conditions: 150 microgramme aliquot spotted onto plate
Description: as §1

Saprolegnia asterophora = assay: Antifungal plate diffusion method; assay type: cell-based; conditions: 150 microgramme aliquot spotted onto plate
Description: as §1

brine shrimp = assay: Brine shrimp bioassay (cytotoxicity); assay type: in vivo; conditions: for LC50: brine shrimp, 24 hours
Description: The cytotoxicity of compounds isolated from Aristolochia taliscana was assayed using the well known brine shrimp bioassay. The cytotoxicities of compounds of the invention, expressed as percentage “death rates” after 24 hours, at varying concentrations, are shown in Table 8 below.

[1] = test system: Salmonella typhimurium strain TA 100; assay: Ames bio-assay, antimutagenic activity against 2-amino-anthracene (2-AA) with S9 Mix; assay type: cell-based; conditions: for Residual mutagenic activity (%) observed for 2-AA: 1 μg 2-AA per plate, S9 Mix
Description: (§2) The four major constituents of the benzene extract from Aristolochia taliscana roots—eupomatenoid-7 (7), eupomatenoid-1 (8), eupomatenoid-8 (17), Licarin-A (16)—were tested for their mutagenic and antimutagenic properties using the Ames bio-assay (Maron, D. M. and Ames, B. N., Mutation reasearch, 1983, 113, 173). The test compounds have the following structural formula: [drawing 11]
(§3) Salmonella typhimurium strain TA 100 was used as the test organism and 2-amino-anthracene (2-AA) and 2-nitrofluorene (2-NF) as standard mutagens, of which 1 μg were added to each test plate. In the experiments with 2-AA, “S9 Mix” (derived from phenobarbital treated rat liver cells (De Flora, S., Camoirana, A., D'Agostini, F. and Balansky, R., Mutation Research, 1992, 267, 183) was also added.

[2] = test system: Salmonella typhimurium strain TA 100; assay: Ames bio-assay, antimutagenic activity against 2-nitrofluorene (2-NF); assay type: cell-based; conditions: for Residual mutagenic activity (%) observed for 2-NF: 1 μg 2-NF per plate
Description: as §2, §3

## COc1cc2c(cc1C)C(=O)[C@H](O)C[C@@H]2C [Compound 34, (2R,4S)-2-Hydroxy-6-methoxy-4,7-dimethyl-1-tetralone]
Botryis cinerea
  diameter of inhibition of fungal growth, Botryis cinerea: ++ (++ = 5-10 mm diameter inhibition)
Rhizoctonia solani
  diameter of inhibition of fungal growth, Rhizoctonia solani: ++ (++ = 5-10 mm diameter inhibition)
Saprolegnia asterophora
  diameter of inhibition of fungal growth, Saprolegnia asterophora: ++ (++ = 5-10 mm diameter inhibition)
Brine shrimp; 10 ppm
  “Death Rate” After 24 Hours (%): 52%
Brine shrimp; 100 ppm
  “Death Rate” After 24 Hours (%): 86%
Brine shrimp; 500 ppm
  “Death Rate” After 24 Hours (%): 100%
Brine shrimp
  LC50: <10 ppm

## C/C=C/c1cc(OC)c2c(c1)[C@H](C)[C@@H](c1ccc(O)c(OC)c1)O2 [Licarin-A (16), Licarin-A]
Botryis cinerea
  diameter of inhibition of fungal growth, Botryis cinerea: −
Rhizoctonia solani
  diameter of inhibition of fungal growth, Rhizoctonia solani: ++ (++ = 5-10 mm diameter inhibition)
Saprolegnia asterophora
  diameter of inhibition of fungal growth, Saprolegnia asterophora: −
[1]
  antimutagenic effect against 2-aminoanthracene (in words): antimutagenically active
[1]; 50 μg compound added
  Residual mutagenic activity (%) observed for 2-AA: 31%
[1]; 100 μg compound added
  Residual mutagenic activity (%) observed for 2-AA: 6%
Brine shrimp; 10 ppm
  “Death Rate” After 24 Hours (%): 93%
Brine shrimp; 100 ppm
  “Death Rate” After 24 Hours (%): 93%
Brine shrimp; 500 ppm
  “Death Rate” After 24 Hours (%): 96%
Brine shrimp
  LC50: <10 ppm
[2]
  antimutagenic effect against 2-nitrofluorene (in words): not against 2-NF
[2]; 50 μg compound added
  Residual mutagenic activity (%) observed for 2-NF: 94%
[2]; 100 μg compound added
  Residual mutagenic activity (%) observed for 2-NF: 85%

## CC=Cc1cc(OC)c2oc(-c3ccc4c(c3)OCO4)c(C)c2c1 [Eupomatenoid-1 (8), Eupomatenoid-1]
Botryis cinerea
  diameter of inhibition of fungal growth, Botryis cinerea: −
Rhizoctonia solani
  diameter of inhibition of fungal growth, Rhizoctonia solani: −
Saprolegnia asterophora
  diameter of inhibition of fungal growth, Saprolegnia asterophora: −
[1]
  antimutagenic effect against 2-aminoanthracene (in words): antimutagenically active
[1]; 50 μg compound added
  Residual mutagenic activity (%) observed for 2-AA: 49%
[1]; 100 μg compound added
  Residual mutagenic activity (%) observed for 2-AA: 44%
Brine shrimp; 10 ppm
  “Death Rate” After 24 Hours (%): 12%
Brine shrimp; 100 ppm
  “Death Rate” After 24 Hours (%): 16%
Brine shrimp; 500 ppm
  “Death Rate” After 24 Hours (%): 20%
Brine shrimp
  LC50: >500 ppm
[2]
  antimutagenic effect against 2-nitrofluorene (in words): not against 2-NF
[2]; 50 μg compound added
  Residual mutagenic activity (%) observed for 2-NF: 99%
[2]; 100 μg compound added
  Residual mutagenic activity (%) observed for 2-NF: 93%

## (+)(2R, 3R)-Dihydrocarinatidin [Dihydrocarinatidine (21)]
Botryis cinerea
  diameter of inhibition of fungal growth, Botryis cinerea: + (+ = 5 mm diameter inhibition)
Rhizoctonia solani
  diameter of inhibition of fungal growth, Rhizoctonia solani: + (+ = 5 mm diameter inhibition)
Saprolegnia asterophora
  diameter of inhibition of fungal growth, Saprolegnia asterophora: + (+ = 5 mm diameter inhibition)
Brine shrimp; 10 ppm
  “Death Rate” After 24 Hours (%): 26%
Brine shrimp; 100 ppm
  “Death Rate” After 24 Hours (%): 53%
Brine shrimp; 500 ppm
  “Death Rate” After 24 Hours (%): 80%
Brine shrimp
  LC50: ca. 120 ppm

## C/C=C/c1cc(OC)c2oc(-c3ccc(O)c(OC)c3)c(CO)c2c1
other
  melting point: 175 to 179 °C

## Aristolactam C III [Aristolactam C (4)]
Botryis cinerea
  diameter of inhibition of fungal growth, Botryis cinerea: + (+ = 5 mm diameter inhibition)
Rhizoctonia solani
  diameter of inhibition of fungal growth, Rhizoctonia solani: + (+ = 5 mm diameter inhibition)
Saprolegnia asterophora
  diameter of inhibition of fungal growth, Saprolegnia asterophora: ++ (++ = 5-10 mm diameter inhibition)
Brine shrimp; 10 ppm
  “Death Rate” After 24 Hours (%): 0%
Brine shrimp; 100 ppm
  “Death Rate” After 24 Hours (%): 0%
Brine shrimp; 500 ppm
  “Death Rate” After 24 Hours (%): 3%
Brine shrimp
  LC50: >500 ppm

## C=CC(O)c1cc(OC)c2oc(-c3ccc(O)c(OC)c3)c(C)c2c1 (racemic)
other
  melting point: 164 to 167 °C

## COc1cc(C=O)ccc1O [Vanillin (31), Vanillin]
Botryis cinerea
  diameter of inhibition of fungal growth, Botryis cinerea: −
Rhizoctonia solani
  diameter of inhibition of fungal growth, Rhizoctonia solani: −
Saprolegnia asterophora
  diameter of inhibition of fungal growth, Saprolegnia asterophora: −
Brine shrimp; 10 ppm
  “Death Rate” After 24 Hours (%): 5%
Brine shrimp; 100 ppm
  “Death Rate” After 24 Hours (%): 0%
Brine shrimp; 500 ppm
  “Death Rate” After 24 Hours (%): 12%
Brine shrimp
  LC50: >500 ppm

## COc1cc(/C=C/CO)ccc1O [Coniferyl alcohol (29), Coniferyl alcohol]
Botryis cinerea
  diameter of inhibition of fungal growth, Botryis cinerea: −
Rhizoctonia solani
  diameter of inhibition of fungal growth, Rhizoctonia solani: −
Saprolegnia asterophora
  diameter of inhibition of fungal growth, Saprolegnia asterophora: −
Brine shrimp; 10 ppm
  “Death Rate” After 24 Hours (%): 0%
Brine shrimp; 100 ppm
  “Death Rate” After 24 Hours (%): 0%
Brine shrimp; 500 ppm
  “Death Rate” After 24 Hours (%): 15%
Brine shrimp
  LC50: >500 ppm

## COc1ccc2cc3c4c(cc(OC)c(OC)c4c2c1)C(=O)N3 [Aristolactam B (3), Aristolactam B III]
Botryis cinerea
  diameter of inhibition of fungal growth, Botryis cinerea: −
Rhizoctonia solani
  diameter of inhibition of fungal growth, Rhizoctonia solani: + (+ = 5 mm diameter inhibition)
Saprolegnia asterophora
  diameter of inhibition of fungal growth, Saprolegnia asterophora: −
Brine shrimp; 10 ppm
  “Death Rate” After 24 Hours (%): 5%
Brine shrimp; 100 ppm
  “Death Rate” After 24 Hours (%): 9%
Brine shrimp; 500 ppm
  “Death Rate” After 24 Hours (%): 29%
Brine shrimp
  LC50: >500 ppm

## C=C1/C=C/[C@@H](C(C)C)CC/C(C)=C/CC1 [E-Germacrene D (38), ent-Germacrene-D]
Botryis cinerea
  diameter of inhibition of fungal growth, Botryis cinerea: + (+ = 5 mm diameter inhibition)
Rhizoctonia solani
  diameter of inhibition of fungal growth, Rhizoctonia solani: + (+ = 5 mm diameter inhibition)
Saprolegnia asterophora
  diameter of inhibition of fungal growth, Saprolegnia asterophora: −
Brine shrimp; 10 ppm
  “Death Rate” After 24 Hours (%): 0%
Brine shrimp; 100 ppm
  “Death Rate” After 24 Hours (%): 39%
Brine shrimp; 500 ppm
  “Death Rate” After 24 Hours (%): 100%
Brine shrimp
  LC50: ca. 126 ppm

## CC=Cc1cc(OC)c2c(c1)C(C)C(c1ccc3c(c1)OCO3)O2 (single isomer, unassigned; (-)) [Eupomatenoid-8 (17)]
Botryis cinerea
  diameter of inhibition of fungal growth, Botryis cinerea: −
Rhizoctonia solani
  diameter of inhibition of fungal growth, Rhizoctonia solani: −
Saprolegnia asterophora
  diameter of inhibition of fungal growth, Saprolegnia asterophora: −
[1]
  antimutagenic effect against 2-aminoanthracene (in words): did not show any antimutagenic effect
[1]; 50 μg compound added
  Residual mutagenic activity (%) observed for 2-AA: 90%
[1]; 100 μg compound added
  Residual mutagenic activity (%) observed for 2-AA: 73%
Brine shrimp; 10 ppm
  “Death Rate” After 24 Hours (%): 9%
Brine shrimp; 100 ppm
  “Death Rate” After 24 Hours (%): 27%
Brine shrimp; 500 ppm
  “Death Rate” After 24 Hours (%): 42%
Brine shrimp
  LC50: >500 ppm
[2]
  antimutagenic effect against 2-nitrofluorene (in words): did not show any antimutagenic effect
[2]; 50 μg compound added
  Residual mutagenic activity (%) observed for 2-NF: 100%
[2]; 100 μg compound added
  Residual mutagenic activity (%) observed for 2-NF: 95%

## COc1cc(C2(C)COc3c(OC)cc(C=O)cc32)ccc1O (stereo not shown)
other
  melting point: 162 to 165 °C

## COc1cc(-c2oc3c(OC)cc(/C=C/CO)cc3c2C)ccc1O
other
  melting point: 180 to 183 °C

## C/C=C/c1cc(OC)c2oc(-c3ccc(O)c(OC)c3)c(C)c2c1 [Eupomatenoid-7 (7), Eupomatenoid-7]
Botryis cinerea
  diameter of inhibition of fungal growth, Botryis cinerea: −
Rhizoctonia solani
  diameter of inhibition of fungal growth, Rhizoctonia solani: −
Saprolegnia asterophora
  diameter of inhibition of fungal growth, Saprolegnia asterophora: −
[1]
  antimutagenic effect against 2-aminoanthracene (in words): strong antimutagenic effects
[1]; 50 μg compound added
  Residual mutagenic activity (%) observed for 2-AA: 4%
[1]; 100 μg compound added
  Residual mutagenic activity (%) observed for 2-AA: 0%
Brine shrimp; 10 ppm
  “Death Rate” After 24 Hours (%): 27%
Brine shrimp; 100 ppm
  “Death Rate” After 24 Hours (%): 38%
Brine shrimp; 500 ppm
  “Death Rate” After 24 Hours (%): 38%
Brine shrimp
  LC50: >500 ppm
[2]
  antimutagenic effect against 2-nitrofluorene (in words): strong antimutagenic effects
[2]; 50 μg compound added
  Residual mutagenic activity (%) observed for 2-NF: 16%
[2]; 100 μg compound added
  Residual mutagenic activity (%) observed for 2-NF: 0%

## COc1cc([C@@H]2c3cc4c(cc3[C@H](O)[C@H]3COC(=O)[C@H]23)OCO4)cc(OC)c1OC [Podophyllotoxin, reference compound]
Brine shrimp; 10 ppm
  “Death Rate” After 24 Hours (%): 74%
Brine shrimp; 100 ppm
  “Death Rate” After 24 Hours (%): 93%
Brine shrimp; 500 ppm
  “Death Rate” After 24 Hours (%): 100%
Brine shrimp
  LC50: <10 ppm
